# Where two headings read alike, the source gives them in different places.
# Assays:
# E. coli (EC14) = test: In vitro activity (MIC), agar dilution method; format: cell-based; details: Escherichia coli
# Protocol: (§1) Cephalosporins 9a-o were assayed against a broad array of Gram-positive and Gram-negative bacteria in Mueller-Hinton agar by the 2-fold serial dilution method, (Kirst, H. A.; J. Antibiot. 1982, 35, 1675).
# (§2) Test compounds were diluted to an appropriate range of concentrations in 0.1M phosphate buffer (pH 7), incorporated into Mueller-Hinton agar (difco) supplemented with 1% Bacto-Supplement C (Difco) at 50° C. and allowed to solidify in petri dishes. Fresh overnight cultures of test bacteria were diluted to approximately 1×10^4 cells/mL aand applied in […] to the surface of the agar plates. The inoculated plates were incubated overnight at 35° C. in ambient air. MIC endpoints were recorded as the lowest antibiotic concentrations that inhibited the development of visible bacterial growth on the plates.
# E. coli (N10) = test: In vitro activity (MIC), agar dilution method; format: cell-based; details: Escherichia coli
# Protocol: as §1, §2
# E. coli (TEM) = test: In vitro activity (MIC), agar dilution method; format: cell-based; details: Escherichia coli
# Protocol: as §1, §2
# Enter. faecalis (2041) = test: In vitro activity (MIC), agar dilution method; format: cell-based; details: Enterococcus faecalis; Enter. faecalis (2041), agar dilution; read-out: MIC
# Protocol: as §1, §2
# Enter. faecium (X66) = test: In vitro activity (MIC), agar dilution method; format: cell-based; details: Enterococcus faecium; Enter. faecium (X66), agar dilution; read-out: MIC
# Protocol: as §1, §2
# K. pneumonia (KAE) = test: In vitro activity (MIC), agar dilution method; format: cell-based; details: Klebsiella pneumoniae
# Protocol: as §1, §2
# K. pneumonia (X26) = test: In vitro activity (MIC), agar dilution method; format: cell-based; details: Klebsiella pneumoniae; K. pneumonia (X26), agar dilution; read-out: MIC
# Protocol: as §1, §2
# K. pneumonia (X68) = test: In vitro activity (MIC), agar dilution method; format: cell-based; details: Klebsiella pneumoniae
# Protocol: as §1, §2
# Staph. aureus (S13E) = test: In vitro activity (MIC), agar dilution method; format: cell-based; details: Staphylococcus aureus
# Protocol: as §1, §2
# Staph. aureus (V41) = test: In vitro activity (MIC), agar dilution method; format: cell-based; details: Staphylococcus aureus; Staph. aureus (V41), agar dilution; read-out: MIC
# Protocol: as §1, §2
# Staph. aureus (X1.1) = test: In vitro activity (MIC), agar dilution method; format: cell-based; details: Staphylococcus aureus; Staph. aureus (X1.1), agar dilution; read-out: MIC
# Protocol: as §1, §2
# Staph. aureus (X400) = test: In vitro activity (MIC), agar dilution method; format: cell-based; details: Staphylococcus aureus; Staph. aureus (X400), methicillin-resistant strain, agar dilution; read-out: MIC
# Protocol: as §1, §2
# Staph. epiderm. (222) = test: In vitro activity (MIC), agar dilution method; format: cell-based; details: Staphylococcus epidermidis; Staph. epiderm. (222), methicillin-resistant strain, agar dilution; read-out: MIC
# Protocol: as §1, §2
# Staph. epiderm. (270) = test: In vitro activity (MIC), agar dilution method; format: cell-based; details: Staphylococcus epidermidis, methicillin-resistant strain
# Protocol: as §1, §2
# other Gram(-) bacteria = test: In vitro activity (MIC), agar dilution method; format: cell-based
# [1] = MICs against 4 strains of methicillin-resistant staphylococci; format: cell-based, Staphylococcus aureus and Staphylococcus epidermidis; details: Staphylococcus aureus, read-out: minimal inhibitory concentrations (MICs)
# Protocol: as §1, §2
# H. influenzae (76) = test: In vitro activity (MIC), agar dilution method; format: cell-based; details: Haemophilus influenzae; H. influenzae (76), agar dilution; read-out: MIC
# Protocol: as §1, §2
# H. influenzae (C.L.) = test: In vitro activity (MIC), agar dilution method; format: cell-based; details: Haemophilus influenzae; H. influenzae (C.L.), agar dilution; read-out: MIC
# Protocol: as §1, §2
# Strept. pyogenes (C203) = test: In vitro activity (MIC), agar dilution method; format: cell-based; details: Streptococcus pyogenes; Strept. pyogenes (C203), agar dilution; read-out: MIC
# Protocol: as §1, §2
# [2] = tested on: 33 strains of methicillin-resistant staphylococci; test: Geometric mean MICs against 33 strains of methicillin-resistant staphylococci; format: cell-based
# Protocol: as §2
# It is known that resistance to methicillin in staphylococci is often of the heterogeneous type and therefore not easily detected. […] (Goldstein, F. W.; Acar, J. J. Antimicrob. Chemother. […], 27, 549). […] J.; Drake T. A.; Rusnak, M. G.; Sande, M. A. J. Infect. Dis. 1984, 149, 894).
# [3] = tested on: methicillin-resistant staphylococci; details: in words; Frongillo 1984; cited from earlier work
# [4] = tested on: methicillin-resistant staphylococci; details: in words; Chambers 1984; cited from earlier work
# [5] = tested on: methicillin-resistant staphylococci; details: in words; Frongillo 1986; cited from earlier work
Structure (SMILES),MIC (E. coli (EC14)) [µg/mL],MIC (E. coli (N10)) [µg/mL],MIC (E. coli (TEM)) [µg/mL],MIC (Enter. faecalis (2041)) [µg/mL],MIC (Enter. faecium (X66)) [µg/mL],MIC (K. pneumonia (KAE)) [µg/mL],MIC (K. pneumonia (X26)) [µg/mL],MIC (K. pneumonia (X68)) [µg/mL],MIC (Staph. aureus (S13E)) [µg/mL],MIC (Staph. aureus (V41)) [µg/mL],MIC (Staph. aureus (X1.1)) [µg/mL],MIC (Staph. aureus (X400)) [µg/mL],MIC (Staph. epiderm. (222)) [µg/mL],MIC (Staph. epiderm. (270)) [µg/mL],MIC (other Gram(-) bacteria) [µg/mL],MIC [1] [µg/mL],MIC (H. influenzae (76)) [µg/mL],MIC (H. influenzae (C.L.)) [µg/mL],MIC (Strept. pyogenes (C203)) [µg/mL],also measured
"CC(=O)OCC1=C(C(=O)O)N2C(=O)[C@@H](NC(=O)Cc3csc(-c4cccc(O)c4)n3)[C@H]2SC1 [9m, [6R-[6A,7B(R*)]]-3-[(Acetyloxy)methyl]-7-[[[2-(3-hydroxyphenyl)-4-thiazolyl]acetyl]amino]-8-oxo-5-thia-1-azabicyclo[4.2.0]oct-2-ene-2-carboxylic Acid]",128,128,128,16,32,128,4,128,8,1,0.25,16,0.25,1,> 64,≤ 16,–,–,–,–
"COc1ccccc1-c1nc(CC(=O)N[C@@H]2C(=O)N3C(C(=O)O)=C(COC(C)=O)CS[C@H]23)cs1 [9o, [6R-[6A,7B(R*)]]-3-[(Acetyloxy)methyl]-7-[[[2-(2-methoxyphenyl)-4-thiazolyl]acetyl]amino]-8-oxo-5-thia-1-azabicyclo[4.2.0]oct-2-ene-2-carboxylic Acid]",128,128,128,8,16,128,2,128,8,0.5,0.06,16,0.125,0.5,> 64,≤ 16,4,64,0.015,–
Cn1nnnc1SCC1=C(C(=O)O)N2C(=O)[C@@H](NC(=O)[C@H](O)c3ccccc3)[C@H]2SC1 [Cefamandole],–,–,–,–,–,–,–,–,–,–,–,–,–,–,–,–,–,–,–,"MIC ([2]; MHA + 4% NaCl, 33 strains, 35° C., read-out: Geometric mean MIC): 13 µg/mL; MIC ([2]; MHA, 33 strains, read-out: Geometric mean MIC): 6.8 µg/mL; activity against methicillin-resistant staphylococci [3]: among the most active β-lactam antibiotics against methicillin-resistant staphylococci; efficacy in animal models versus vancomycin [4]: poorer efficacy than vancomycin in animal models; clinical use for treatment of infections caused by methicillin-resistant staphylococci [5]: successfully used clinically for the treatment of infections caused by methicillin-resistant staphylococci"
"CO/N=C(\C(=O)N[C@@H]1C(=O)N2C(C(=O)O)=C(COC(C)=O)CS[C@H]12)c1csc(N)n1 [Cefot, Cefotaxime, reference compound]",–,–,0.008,1,128,–,0.008,–,64,2,1,128,2,8,–,–,0.008,0.008,0.008,"MIC (E. coli (EC14); E. coli (EC14), agar dilution, read-out: MIC): 0.015 µg/mL; MIC (E. coli (N10); E. coli (N10), agar dilution, read-out: MIC): 0.06 µg/mL; MIC (K. pneumonia (KAE); K. pneumonia (KAE), agar dilution, read-out: MIC): 1 µg/mL; MIC (K. pneumonia (X68); K. pneumonia (X68), agar dilution, read-out: MIC): 0.015 µg/mL"
"Cc1onc(-c2ccccc2)c1C(=O)N[C@@H]1C(=O)N2[C@@H]1SC(C)(C)[C@@H]2C(=O)O [Oxacillin, reference compound]",–,–,–,–,–,–,–,–,–,–,–,–,–,–,–,–,–,–,–,"MIC ([2]; read-out: Geometric mean MIC, MHA + 4% NaCl, 33 strains, 35° C.): 97 µg/mL; MIC ([2]; read-out: Geometric mean MIC, MHA, 33 strains): 49 µg/mL"
